{"source": "paper PMC6502639", "about": "(Nature protocols, 2018)", "key": {"hiPSC-CMs [1]": {"system": "hiPSC-CMs", "conditions": "cited from earlier work"}, "hiPSC-CMs [2]": {"system": "hiPSC-CMs"}, "patient cardiac function": {"system": "patient cardiac function", "conditions": "patients; abbreviations in table footnote; ref Table S1 in Sharma et al. 10; cited from earlier work"}, "hiPSC-CMs [3]": {"system": "hiPSC-CMs", "conditions": "cited from earlier work; for hiPSC-CM cytotoxicity (in words): hiPSC-CMs"}, "hiPSC-CMs [4]": {"system": "hiPSC-CMs", "conditions": "cited from earlier work", "remark": "listed apart in the source"}, "hiPSC-CMs [5]": {"system": "hiPSC-CMs", "conditions": "cited from earlier work", "remark": "listed apart in the source"}, "[6]": {"conditions": "concentration at which 50% loss in hiPSC-CM viability is observed, 72 h"}, "[7]": {"conditions": "0 to 1, average of normalized CoB and LD50 corrected by Cmax, without EC or AE"}}, "note": "Like-named read-outs stand apart in the source and are kept apart here.", "data": [{"smiles": "Cc1nc(Nc2ncc(C(=O)Nc3c(C)cccc3Cl)s2)cc(N2CCN(CCO)CC2)n1", "note": "[Dasatinib]", "values": [{"measurement": "Normalized CSI (CSIN)", "setting": "hiPSC-CMs [1]", "result": 0.524}, {"measurement": "Normalized CSI-Lite (CSINLITE)", "setting": "hiPSC-CMs [2]; human", "result": 0.599}, {"measurement": "Clinically reported cardiotoxicity", "setting": "patient cardiac function", "result": "QT, PE, Hy"}, {"measurement": "LD50", "setting": "hiPSC-CMs [3]; [6]", "result": 42.00, "unit": "µM"}]}, {"smiles": "CNC(=O)c1cc(Oc2ccc(NC(=O)Nc3ccc(Cl)c(C(F)(F)F)c3)cc2)ccn1", "note": "[Sorafenib]", "values": [{"measurement": "Normalized CSI (CSIN)", "setting": "hiPSC-CMs [1]", "result": 0.004}, {"measurement": "Normalized CSI-Lite (CSINLITE)", "setting": "hiPSC-CMs [2]; human", "result": 0.003}, {"measurement": "Clinically reported cardiotoxicity", "setting": "patient cardiac function", "result": "QT, LV, HF, MI, Hy"}, {"measurement": "LD50", "setting": "hiPSC-CMs [3]", "result": 3.40, "unit": "µM"}, {"measurement": "hiPSC-CM cytotoxicity (in words)", "setting": "hiPSC-CMs [3]", "result": "highly cytotoxic to hiPSC-CMs"}]}, {"smiles": "Cc1cn(-c2cc(NC(=O)c3ccc(C)c(Nc4nccc(-c5cccnc5)n4)c3)cc(C(F)(F)F)c2)cn1", "note": "[Nilotinib]", "values": [{"measurement": "Normalized CSI-Lite (CSINLITE)", "setting": "hiPSC-CMs [2]; human", "result": 0.148}, {"measurement": "Clinically reported cardiotoxicity", "setting": "patient cardiac function", "result": "QT, LV, Vas^a"}, {"measurement": "LD50", "setting": "hiPSC-CMs [3]", "result": 29.00, "unit": "µM"}]}, {"smiles": "C#Cc1cccc(Nc2ncnc3cc(OCCOC)c(OCCOC)cc23)c1", "note": "[Erlotinib]", "values": [{"measurement": "Normalized CSI (CSIN)", "setting": "hiPSC-CMs [1]", "result": 0.653}, {"measurement": "Normalized CSI-Lite (CSINLITE)", "setting": "hiPSC-CMs [2]; human", "result": 0.570}, {"measurement": "Clinically reported cardiotoxicity", "setting": "patient cardiac function", "result": "MI (rare)"}, {"measurement": "LD50", "setting": "hiPSC-CMs [3]", "result": 87.60, "unit": "µM"}]}, {"smiles": "COc1cc(Nc2c(C#N)cnc3cc(OCCCN4CCN(C)CC4)c(OC)cc23)c(Cl)cc1Cl", "note": "[Bosutinib]", "values": [{"measurement": "Normalized CSI-Lite (CSINLITE)", "setting": "hiPSC-CMs [2]; [7]", "result": 0.423}, {"measurement": "LD50", "setting": "hiPSC-CMs [3]; [6]", "result": 12.39, "unit": "µM"}]}, {"smiles": "CC(C)(C)c1nc(-c2cccc(NS(=O)(=O)c3c(F)cccc3F)c2F)c(-c2ccnc(N)n2)s1", "note": "[Dabrafenib]", "values": [{"measurement": "Normalized CSI (CSIN)", "setting": "hiPSC-CMs [1]", "result": 0.459}, {"measurement": "Normalized CSI-Lite (CSINLITE)", "setting": "hiPSC-CMs [2]; [7]", "result": 0.561}, {"measurement": "LD50", "setting": "hiPSC-CMs [3]; [6]", "result": 100.68, "unit": "µM"}]}, {"smiles": "C[C@@H](Oc1cc(-c2cnn(C3CCNCC3)c2)cnc1N)c1c(Cl)ccc(F)c1Cl", "note": "[Crizotinib]", "values": [{"measurement": "Normalized CSI (CSIN)", "setting": "hiPSC-CMs [1]", "result": 0.063}, {"measurement": "Normalized CSI-Lite (CSINLITE)", "setting": "hiPSC-CMs [2]; [7]", "result": 0.067}, {"measurement": "Clinically reported cardiotoxicity", "setting": "patient cardiac function", "result": "QT, Brady"}, {"measurement": "LD50", "setting": "hiPSC-CMs [3]", "result": 8.60, "unit": "µM"}]}, {"smiles": "CC(=O)Nc1cccc(-n2c(=O)n(C3CC3)c(=O)c3c(Nc4ccc(I)cc4F)n(C)c(=O)c(C)c32)c1", "note": "[Trametinib]", "values": [{"measurement": "Normalized CSI-Lite (CSINLITE)", "setting": "hiPSC-CMs [2]; human", "result": 1.000}, {"measurement": "LD50", "setting": "hiPSC-CMs [3]; [6]", "result": 66.80, "unit": "µM"}]}, {"smiles": "COc1cc2c(Nc3ccc(Br)cc3F)ncnc2cc1OCC1CCN(C)CC1", "note": "[Vandetanib]", "values": [{"measurement": "Normalized CSI (CSIN)", "setting": "hiPSC-CMs [1]", "result": 0.041}, {"measurement": "Normalized CSI-Lite (CSINLITE)", "setting": "hiPSC-CMs [2]; [7]", "result": 0.056}, {"measurement": "Effect on hiPSC-CM action potential / electrophysiology (in words)", "setting": "hiPSC-CMs [4]", "result": "caused changes in hiPSC-CM electrophysiology and action potential duration"}, {"measurement": "Clinically reported cardiotoxicity", "setting": "patient cardiac function", "result": "QT, TdP, SCD, HF, Hy^a"}, {"measurement": "hiPSC-CM contractility alteration (in words)", "setting": "hiPSC-CMs [5]", "result": "elicited arrhythmias and alterations in hiPSC-CM contractility"}, {"measurement": "LD50", "setting": "hiPSC-CMs [3]; [6]", "result": 20.60, "unit": "µM"}]}, {"smiles": "CN(C)C/C=C/C(=O)Nc1cc2c(Nc3ccc(F)c(Cl)c3)ncnc2cc1O[C@H]1CCOC1", "note": "[Afatinib]", "values": [{"measurement": "Normalized CSI (CSIN)", "setting": "hiPSC-CMs [1]", "result": 0.444}, {"measurement": "Normalized CSI-Lite (CSINLITE)", "setting": "hiPSC-CMs [2]; human", "result": 0.515}, {"measurement": "Clinically reported cardiotoxicity", "setting": "patient cardiac function", "result": "None"}, {"measurement": "LD50", "setting": "hiPSC-CMs [3]", "result": 12.30, "unit": "µM"}]}, {"smiles": "CCN(CC)CCNC(=O)c1c(C)[nH]c(/C=C2\\C(=O)Nc3ccc(F)cc32)c1C", "note": "[Sunitinib]", "values": [{"measurement": "Normalized CSI (CSIN)", "setting": "hiPSC-CMs [1]", "result": 0.218}, {"measurement": "Normalized CSI-Lite (CSINLITE)", "setting": "hiPSC-CMs [2]; human", "result": 0.292}, {"measurement": "Clinically reported cardiotoxicity", "setting": "patient cardiac function", "result": "HF, LV, MI, QT, Hy^b"}, {"measurement": "LD50", "setting": "hiPSC-CMs [3]", "result": 12.70, "unit": "µM"}]}, {"smiles": "CS(=O)(=O)CCNCc1ccc(-c2ccc3ncnc(Nc4ccc(OCc5cccc(F)c5)c(Cl)c4)c3c2)o1", "note": "[Lapatinib]", "values": [{"measurement": "Normalized CSI (CSIN)", "setting": "hiPSC-CMs [1]", "result": 0.209}, {"measurement": "Normalized CSI-Lite (CSINLITE)", "setting": "hiPSC-CMs [2]; human", "result": 0.190}, {"measurement": "Clinically reported cardiotoxicity", "setting": "patient cardiac function", "result": "LV, QT^b"}, {"measurement": "LD50", "setting": "hiPSC-CMs [3]; [6]", "result": 100.76, "unit": "µM"}]}, {"smiles": "CNC(=O)c1cc(Oc2ccc(NC(=O)Nc3ccc(Cl)c(C(F)(F)F)c3)c(F)c2)ccn1", "note": "[Regorafenib]", "values": [{"measurement": "Normalized CSI (CSIN)", "setting": "hiPSC-CMs [1]", "result": 0.010}, {"measurement": "Normalized CSI-Lite (CSINLITE)", "setting": "hiPSC-CMs [2]; [7]", "result": 0.010}, {"measurement": "Clinically reported cardiotoxicity", "setting": "patient cardiac function", "result": "MI, Hy^b"}, {"measurement": "LD50", "setting": "hiPSC-CMs [3]; [6]", "result": 7.10, "unit": "µM"}]}, {"smiles": "C=CC(=O)N1CCC[C@@H](n2nc(-c3ccc(Oc4ccccc4)cc3)c3c(N)ncnc32)C1", "note": "[Ibrutinib]", "values": [{"measurement": "Normalized CSI (CSIN)", "setting": "hiPSC-CMs [1]", "result": 0.507}, {"measurement": "Normalized CSI-Lite (CSINLITE)", "setting": "hiPSC-CMs [2]; human", "result": 0.580}]}, {"smiles": "CNC(=O)c1ccccc1Sc1ccc2c(/C=C/c3ccccn3)n[nH]c2c1", "note": "[Axitinib]", "values": [{"measurement": "Normalized CSI (CSIN)", "setting": "hiPSC-CMs [1]", "result": 1.000}, {"measurement": "Normalized CSI-Lite (CSINLITE)", "setting": "hiPSC-CMs [2]; human", "result": 1.000}, {"measurement": "Clinically reported cardiotoxicity", "setting": "patient cardiac function", "result": "HF (rare), Hy"}, {"measurement": "hiPSC-CM contractility alteration (in words)", "setting": "hiPSC-CMs [5]", "result": "does not substantially alter"}, {"measurement": "hiPSC-CM cytotoxicity (in words)", "setting": "hiPSC-CMs [3]", "result": "does not substantially alter"}]}, {"smiles": "Cc1ccc(C(=O)Nc2ccc(CN3CCN(C)CC3)c(C(F)(F)F)c2)cc1C#Cc1cnc2cccnn12", "note": "[Ponatinib]", "values": [{"measurement": "Normalized CSI-Lite (CSINLITE)", "setting": "hiPSC-CMs [2]; [7]", "result": 0.225}, {"measurement": "LD50", "setting": "hiPSC-CMs [3]; [6]", "result": 4.30, "unit": "µM"}]}, {"smiles": "Cc1ccc(Nc2nccc(N(C)c3ccc4c(C)n(C)nc4c3)n2)cc1S(N)(=O)=O", "note": "[Pazopanib]", "values": [{"measurement": "Normalized CSI (CSIN)", "setting": "hiPSC-CMs [1]", "result": 0.671}, {"measurement": "Normalized CSI-Lite (CSINLITE)", "setting": "hiPSC-CMs [2]; [7]", "result": 1.000}, {"measurement": "Clinically reported cardiotoxicity", "setting": "patient cardiac function", "result": "QT, LV (rare)^b"}]}, {"smiles": "COc1cc2nccc(Oc3ccc(NC(=O)C4(C(=O)Nc5ccc(F)cc5)CC4)cc3)c2cc1OC", "note": "[Cabozantinib]", "values": [{"measurement": "Normalized CSI (CSIN)", "setting": "hiPSC-CMs [1]", "result": 0.769}, {"measurement": "Normalized CSI-Lite (CSINLITE)", "setting": "hiPSC-CMs [2]; human", "result": 1.000}, {"measurement": "Clinically reported cardiotoxicity", "setting": "patient cardiac function", "result": "None^b"}]}, {"smiles": "COc1cccc2c1C(=O)c1c(O)c3c(c(O)c1C2=O)C[C@@](O)(C(=O)CO)C[C@@H]3O[C@H]1C[C@H](N)[C@H](O)[C@H](C)O1", "note": "[Doxorubicin]", "values": [{"measurement": "Normalized CSI (CSIN)", "setting": "hiPSC-CMs [1]", "result": 0.010}, {"measurement": "Normalized CSI-Lite (CSINLITE)", "setting": "hiPSC-CMs [2]; human", "result": 0.008}, {"measurement": "Clinically reported cardiotoxicity", "setting": "patient cardiac function", "result": "HF, LV^a"}, {"measurement": "LD50", "setting": "hiPSC-CMs [3]; [6]", "result": 0.78, "unit": "µM"}]}, {"smiles": "CCCS(=O)(=O)Nc1ccc(F)c(C(=O)c2c[nH]c3ncc(-c4ccc(Cl)cc4)cc23)c1F", "note": "[Vemurafenib]", "values": [{"measurement": "Normalized CSI (CSIN)", "setting": "hiPSC-CMs [1]", "result": 0.003}, {"measurement": "Normalized CSI-Lite (CSINLITE)", "setting": "hiPSC-CMs [2]; [7]", "result": 0.002}, {"measurement": "LD50", "setting": "hiPSC-CMs [3]; [6]", "result": 32.10, "unit": "µM"}]}, {"smiles": "COc1cc2ncnc(Nc3ccc(F)c(Cl)c3)c2cc1OCCCN1CCOCC1", "note": "[Gefitinib]", "values": [{"measurement": "Clinically reported cardiotoxicity", "setting": "patient cardiac function", "result": "None"}]}]}
